Measurements published in patent US20240252454A1, “COMPOSITION COMPRISING AN INHIBITOR OF MITOCHONDRIAL TRANSCRIPTION” (LEAD DISCOVERY CENTER GMBH, priority 2021, published 2024).

Experiments:
Assay in all cases: SRB assay, IMT combined with inhibitor
Type in all cases: cell-based
GRANTA-519 = GRANTA-519 (hematological); concentration series of the labelled inhibitor + fixed concentration of IMT (3S)-1-[(2R)-2-[4-(2-chloro-4-fluoro-phenyl)-2-oxo-chromen-7-yl]oxypropanoyl]piperidine-3-carboxylic acid (Table 3: 40 nM, 120 h); negative=synergistic, positive=antagonistic
Method in brief: (§1)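 Combination growth assay: MAPK signalling SOC titration on a background of 40 nM chromenone piperidine-3-carboxylic acid, 120 h, physiological 5 mM glucose, SRB read-out relative to untreated cells.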

CALU6 = CALU6 (lung); concentration series of the labelled inhibitor + fixed concentration of IMT (3S)-1-[(2R)-2-[4-(2-chloro-4-fluoro-phenyl)-2-oxo-chromen-7-yl]oxypropanoyl]piperidine-3-carboxylic acid (Table 3: 40 nM, 120 h); negative=synergistic, positive=antagonistic
Method in brief: as §1

MV4-11 = MV4-11 (hematological); concentration series of the labelled inhibitor + fixed concentration of IMT (3S)-1-[(2R)-2-[4-(2-chloro-4-fluoro-phenyl)-2-oxo-chromen-7-yl]oxypropanoyl]piperidine-3-carboxylic acid (Table 3: 40 nM, 120 h); negative=synergistic, positive=antagonistic
Method in brief: as §1

A549 = A549 (lung); concentration series of the labelled inhibitor + fixed concentration of IMT (3S)-1-[(2R)-2-[4-(2-chloro-4-fluoro-phenyl)-2-oxo-chromen-7-yl]oxypropanoyl]piperidine-3-carboxylic acid (Table 3: 40 nM, 120 h); negative=synergistic, positive=antagonistic
Method in brief: as §1

U87MG = U87MG (brain); concentration series of the labelled inhibitor + fixed concentration of IMT (3S)-1-[(2R)-2-[4-(2-chloro-4-fluoro-phenyl)-2-oxo-chromen-7-yl]oxypropanoyl]piperidine-3-carboxylic acid (Table 3: 40 nM, 120 h); negative=synergistic, positive=antagonistic
Method in brief: as §1

SKOV3 = SKOV3 (ovary); concentration series of the labelled inhibitor + fixed concentration of IMT (3S)-1-[(2R)-2-[4-(2-chloro-4-fluoro-phenyl)-2-oxo-chromen-7-yl]oxypropanoyl]piperidine-3-carboxylic acid (Table 3: 40 nM, 120 h); negative=synergistic, positive=antagonistic
Method in brief: as §1

HT1080 = HT1080 (connective tissue); concentration series of the labelled inhibitor + fixed concentration of IMT (3S)-1-[(2R)-2-[4-(2-chloro-4-fluoro-phenyl)-2-oxo-chromen-7-yl]oxypropanoyl]piperidine-3-carboxylic acid (Table 3: 40 nM, 120 h); negative=synergistic, positive=antagonistic
Method in brief: as §1

SW620 = SW620 (colon); concentration series of the labelled inhibitor + fixed concentration of IMT (3S)-1-[(2R)-2-[4-(2-chloro-4-fluoro-phenyl)-2-oxo-chromen-7-yl]oxypropanoyl]piperidine-3-carboxylic acid (Table 3: 40 nM, 120 h); negative=synergistic, positive=antagonistic
Method in brief: as §1

SKMEL5 = SKMEL5 (skin); concentration series of the labelled inhibitor + fixed concentration of IMT (3S)-1-[(2R)-2-[4-(2-chloro-4-fluoro-phenyl)-2-oxo-chromen-7-yl]oxypropanoyl]piperidine-3-carboxylic acid (Table 3: 40 nM, 120 h); negative=synergistic, positive=antagonistic
Method in brief: as §1

NCIH460 = NCIH460 (lung); concentration series of the labelled inhibitor + fixed concentration of IMT (3S)-1-[(2R)-2-[4-(2-chloro-4-fluoro-phenyl)-2-oxo-chromen-7-yl]oxypropanoyl]piperidine-3-carboxylic acid (Table 3: 40 nM, 120 h); negative=synergistic, positive=antagonistic
Method in brief: as §1

HELA = HELA (cervix); concentration series of the labelled inhibitor + fixed concentration of IMT (3S)-1-[(2R)-2-[4-(2-chloro-4-fluoro-phenyl)-2-oxo-chromen-7-yl]oxypropanoyl]piperidine-3-carboxylic acid (Table 3: 40 nM, 120 h); negative=synergistic, positive=antagonistic
Method in brief: as §1

COLO205 = COLO205 (colon); concentration series of the labelled inhibitor + fixed concentration of IMT (3S)-1-[(2R)-2-[4-(2-chloro-4-fluoro-phenyl)-2-oxo-chromen-7-yl]oxypropanoyl]piperidine-3-carboxylic acid (Table 3: 40 nM, 120 h); negative=synergistic, positive=antagonistic
Method in brief: as §1

U2OS = U2OS (bone); concentration series of the labelled inhibitor + fixed concentration of IMT (3S)-1-[(2R)-2-[4-(2-chloro-4-fluoro-phenyl)-2-oxo-chromen-7-yl]oxypropanoyl]piperidine-3-carboxylic acid (Table 3: 40 nM, 120 h); negative=synergistic, positive=antagonistic
Method in brief: as §1

DU145 = DU145 (prostate); concentration series of the labelled inhibitor + fixed concentration of IMT (3S)-1-[(2R)-2-[4-(2-chloro-4-fluoro-phenyl)-2-oxo-chromen-7-yl]oxypropanoyl]piperidine-3-carboxylic acid (Table 3: 40 nM, 120 h); negative=synergistic, positive=antagonistic
Method in brief: as §1

Compound	difference between the calculated combinatorial index (BLISS) and the observed combinatorial effect (GRANTA-519)	difference between the calculated combinatorial index (BLISS) and the observed combinatorial effect (CALU6)	difference between the calculated combinatorial index (BLISS) and the observed combinatorial effect (MV4-11)	difference between the calculated combinatorial index (BLISS) and the observed combinatorial effect (A549)	difference between the calculated combinatorial index (BLISS) and the observed combinatorial effect (U87MG)	difference between the calculated combinatorial index (BLISS) and the observed combinatorial effect (SKOV3)	difference between the calculated combinatorial index (BLISS) and the observed combinatorial effect (HT1080)	difference between the calculated combinatorial index (BLISS) and the observed combinatorial effect (SW620)	difference between the calculated combinatorial index (BLISS) and the observed combinatorial effect (SKMEL5)	difference between the calculated combinatorial index (BLISS) and the observed combinatorial effect (NCIH460)	difference between the calculated combinatorial index (BLISS) and the observed combinatorial effect (HELA)	difference between the calculated combinatorial index (BLISS) and the observed combinatorial effect (COLO205)	difference between the calculated combinatorial index (BLISS) and the observed combinatorial effect (U2OS)	difference between the calculated combinatorial index (BLISS) and the observed combinatorial effect (DU145)
CC(C)(C)c1nc(-c2cccc(NS(=O)(=O)c3c(F)cccc3F)c2F)c(-c2ccnc(N)n2)s1 [Dabrafenib]	−0.0357	−0.0342	0.0205	−0.0892	0.0044	0.0282	−0.1475	−0.0699	−0.0987	−0.0275	−0.0022	−0.0114	−0.0418	−0.0114
O=C(c1ccc(F)c(F)c1Nc1ccc(I)cc1F)N1CC(O)([C@@H]2CCCCN2)C1 [Cobimetinib]	−0.0008	0.0286	0.0051	−0.0490	0.0347	0.0499	−0.0482	−0.0609	−0.0872	−0.0338	−0.0068	0.0185	−0.0663	0.0164
Cc1cc(C(=O)NOCCO)c(Nc2ccc(I)cc2F)n(C)c1=O [AZD8330, 2-((2-Fluoro-4-iodophenyl)amino)-N-(2-hydroxyethoxy)-1,5-dimethyl-6-oxo-1,6-dihydropyridine-3-carboxamide]	−0.0506	−0.0116	0.0680	−0.0341	0.0579	−0.0609	0.0197	−0.0037	0.0135	0.0015	0.0000	0.0127	−0.0171	0.0201
CS(=O)(=O)N1CCN(Cc2cc3nc(-c4cccc5[nH]ncc45)nc(N4CCOCC4)c3s2)CC1 [GDC-0941, 2-(1H-Indazol-4-yl)-6-[[4-(methylsulfonyl)-1-piperazinyl]methyl]-4-(4-morpholinyl)thieno[3,2-d]pyrimidine]	0.0647	−0.0406	0.0272	0.0023	0.1078	0.0556	0.0172	0.0303	−0.0915	−0.0178	−0.0531	0.0355	0.0451	0.0436
O=C(c1cc(Cc2n[nH]c(=O)c3ccccc23)ccc1F)N1CCN(C(=O)C2CC2)CC1 [Olaparib]	−0.0088	0.0400	0.0407	0.0174	0.0523	0.0092	–	0.0198	–	−0.0377	−0.0307	−0.0607	−0.0034	0.0557
